Where “and” joins values, the source holds several entries; their conditions need not be identical. Equal entries are not always repeated.

In assay [1] the target is Glycogen synthase kinase-3 alpha (Homo sapiens, UniProt P49840). Briefly: TR-FRET Assay. The method in brief: (§1)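 Compound was preincubated 30 min in assay buffer before the kinase reaction, which was quenched with EDTA. Phosphorylation was detected by TR-FRET after adding a solution of 40 nM streptavidin-d2 and 2 nM Tb-labelled anti-pSer641 antibody.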
Glycogen synthase kinase-3 alpha, sequence (P49840 whole entry): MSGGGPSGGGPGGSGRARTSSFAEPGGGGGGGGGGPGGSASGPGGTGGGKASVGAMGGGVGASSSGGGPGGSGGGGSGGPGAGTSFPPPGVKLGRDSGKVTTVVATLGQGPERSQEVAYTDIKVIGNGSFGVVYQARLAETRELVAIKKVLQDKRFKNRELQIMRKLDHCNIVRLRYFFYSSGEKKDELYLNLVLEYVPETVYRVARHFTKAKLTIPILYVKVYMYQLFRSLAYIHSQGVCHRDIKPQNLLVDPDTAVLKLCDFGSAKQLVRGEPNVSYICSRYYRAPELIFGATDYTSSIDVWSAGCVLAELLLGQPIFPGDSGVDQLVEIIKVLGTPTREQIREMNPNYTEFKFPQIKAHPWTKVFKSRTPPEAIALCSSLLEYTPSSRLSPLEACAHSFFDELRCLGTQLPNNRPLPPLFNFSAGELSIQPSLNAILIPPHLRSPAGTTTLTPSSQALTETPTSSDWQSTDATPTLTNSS
For assay [2], the target named is Glycogen synthase kinase-3 beta (Homo sapiens, UniProt P49841). Briefly: TR-FRET Assay. Put shortly: as §1
Glycogen synthase kinase-3 beta, sequence (P49841 whole entry): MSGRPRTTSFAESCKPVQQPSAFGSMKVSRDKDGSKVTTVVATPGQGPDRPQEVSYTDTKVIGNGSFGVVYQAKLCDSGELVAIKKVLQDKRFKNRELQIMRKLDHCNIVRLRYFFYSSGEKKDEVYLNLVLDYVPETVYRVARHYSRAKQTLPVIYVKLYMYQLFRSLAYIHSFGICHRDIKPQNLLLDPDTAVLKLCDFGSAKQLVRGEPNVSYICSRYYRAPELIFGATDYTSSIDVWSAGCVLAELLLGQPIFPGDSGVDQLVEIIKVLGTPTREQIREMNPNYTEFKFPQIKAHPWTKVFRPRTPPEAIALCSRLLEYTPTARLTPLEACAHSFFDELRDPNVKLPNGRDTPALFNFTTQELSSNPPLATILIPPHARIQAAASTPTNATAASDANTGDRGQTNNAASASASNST

Regarding `CC1(C)CC(=O)C2=C(C1)NC1=C(CN=N1)[C@@]2(C)c1cc(C(F)(F)F)ccc1F` [US20250313563, Compound 816797], the IC50 in assay [1] was 1 to 5 µM; in assay [2] it was greater than 5 µM.
In the case of `CCC1(c2cccc(-c3ccnc4c3CCCC4)c2)C2=C(N=NC2)NC2=C1C(=O)C(C)(C)C2` (configuration not stated) [US20250313563, Compound 952752], the IC50 in assay [1] was less than 0.1 µM; in assay [2], 0.1 to 1 µM.
As for `CC[C@]1(c2cccc(-c3cnn(C)c3)c2)C2=C(CC(C)(C)NC2=O)NC2N=NC(C)=C21` (some centres not stated) [US20250313563, Compound 945611], the IC50 in assay [1] and in assay [2] was greater than 5 µM each time.
For `CC[C@@]1(c2cccc(N(C)c3ncccn3)c2)C2=CN=NC2NC2=C1C(=O)NC(C)(C)C2` (some centres not stated) [US20250313563, Compound 949179], the IC50 in assay [1] was 0.1 to 1 µM; in assay [2], greater than 5 µM.
Take `CCC1(c2cccc(C(F)(F)F)c2)C2=C(N=NC2)NC2=C1C(=O)N(Cc1ccccc1)C2` (configuration not stated) [US20250313563, Compound 917159]: the IC50 in assay [1] was less than 0.1 µM; in assay [2], 0.1 to 1 µM.
For `CCC1(c2cccc(N(C)c3cnn(C)c3)c2)C2=CN=NC2NC2=C1C(=O)CC(C)(C)C2` (configuration not stated) [US20250313563, Compound 885382], the IC50 was 0.1 to 1 µM in assay [1] and 1 to 5 µM in assay [2].
As to `CC[C@@]1(c2ccccc2)C2=CN=NC2NC2=C1C(=O)C[C@@](C)(C(F)(F)F)C2` (some centres not stated) [US20250313563, Compound 819569], the IC50 in assay [1] fell in the range of 0.1 to 1 µM; in assay [2], 1 to 5 µM.
In the same order, the values of `CC[C@@]1(c2cccc(-c3cnn(CCc4ccccc4)c3)c2)C2=CN=NC2NC2=C1C(=O)NC(C)(C)C2` (some centres not stated) [US20250313563, Compound 952017] are less than 0.1 µM and 0.1 to 1 µM.
In the same order, the values of `CC[C@@]1(c2cccc(C(F)(F)F)c2)C2=CN=NC2NC2=C1C(=O)N[C@@H](C)C2` (some centres not stated) [US20250313563, Compound 912099] are greater than 5 µM and greater than 5 µM.
Take `CC[C@]1(c2cccc(-c3cncn3C(C)C)c2)C2=CN=NC2NC2=C1C(=O)CC(C)(C)C2` (some centres not stated) [US20250313563, Compound 945729]: the values for the IC50 in assay [1] and in assay [2] were 0.1 to 1 µM and 1 to 5 µM, respectively.
In the case of `CC1CCC(CC(=O)N2CC3(C2)CC2(CO3)C3=C(N=NC3)NC3=C2C(=O)CC(C)(C)C3)C1` (configuration not stated) [US20250313563, Compound 947269], the IC50 in assay [1] was < 0.1 µM and 0.1 to 1 µM; in assay [2], < 0.1 µM and 0.1 to 1 µM.
For the compound `CC[C@]1(c2cccc(C3CCCC3)c2)C2=CN=NC2NC2=C1C(=O)CC(C)(C)C2` (some centres not stated) [US20250313563, Compound 949397], the IC50 in assay [1] was < 0.1 µM and 0.1 to 1 µM; in assay [2], < 0.1 µM and 1 to 5 µM.
Regarding `CC[C@@]1(c2cccc(C(F)(F)F)c2)C2=CN=NC2NC2=C1C(=O)N(c1ccsc1)CC2` (some centres not stated) [US20250313563, Compound 952636], the IC50 in assay [1] and in assay [2] was greater than 5 µM each time.
On to `CC[C@@]1(c2cccc(-c3cn(C)nc3C)c2)C2=C(N=NC2)NC2=C1C(=O)C(C)(C)C2` [US20250313563, Compound 951702], for which the IC50 in assay [1] and in assay [2] was 0.1 to 1 µM in each case.
For `CC[C@]1(c2cccc([C@@H](C)c3ncccn3)c2)C2=CN=NC2NC2=C1C(=O)CC(C)(C)C2` (some centres not stated) [US20250313563, Compound 948058], the IC50 in assay [1] was < 0.1 µM and 0.1 to 1 µM; in assay [2], < 0.1 µM and 1 to 5 µM.
Take `Cn1ccc(S(=O)(=O)N2CC3(C2)C2=C(N=NC2)NC2=C3C(=O)CC(C)(C)C2)n1` [US20250313563, Compound 913260]: the IC50 in assay [1] and in assay [2] was less than 0.1 µM throughout.
`Cc1cccc(S(=O)(=O)N2CC[C@@]3(C2)C2=C(N=NC2)NC2=C3C(=O)CC(C)(C)C2)c1` [US20250313563, Compound 951863]: the IC50 in assay [1] and in assay [2] was 0.1 to 1 µM in each case.
For `CC[C@]1(c2cccc(N3CCCCC3)c2)C2=C(CC(C)(C)CC2=O)NC2N=NC(C)=C21` (some centres not stated) [US20250313563, Compound 884115], the IC50 in assay [1] and in assay [2] was 0.1 to 1 µM each time.
On to `CC[C@@]1(c2cccc(-c3ccnc(C)c3)c2)C2=CN=NC2NC2=C1C(=O)N[C@@]1(CCOC1)C2` (some centres not stated) [US20250313563, Compound 948149], for which the figures for the IC50 in assay [1] and in assay [2] were less than 0.1 µM and 0.1 to 1 µM, respectively.
Consider `CC[C@]1(c2cccc(N3CCC3)c2)C2=CN=NC2NC2=C1C(=O)CC(C)(C)C2` (some centres not stated) [US20250313563, Compound 889631], for which the IC50 in assay [1] and in assay [2] was 0.1 to 1 µM in each case.
In the case of `CC[C@@]1(c2cccc(-c3cnn(C)c3)c2)C2=CN=NC2NC2=C1C(=O)CC(C)(C)C2` (some centres not stated) [US20250313563, Compound 819576], the values for the IC50 in assay [1] and in assay [2] were 0.1 to 1 µM and 1 to 5 µM, respectively.
In the same order, the values of `C[S@@+]([O-])c1cccc([C@]2(C)C3=C(CC(C)(C)CC3=O)NC3=C2C(CC(C)(C)C)N=N3)c1` (some centres not stated) [US20250313563, Compound 126191B:] are greater than 5 µM and 0.1 to 1 µM.
Consider `CC[C@]1(c2cccc(N(c3cccnc3)C(C)C)c2)C2=CN=NC2NC2=C1C(=O)CC(C)(C)C2` (some centres not stated) [US20250313563, Compound 917086], for which the IC50 in assay [1] is < 0.1 µM and 0.1 to 1 µM; in assay [2], < 0.1 µM and 1 to 5 µM.
Regarding `CCC1(c2cccc(-c3cnn(C)c3)c2)C2=C(CC(C)(C)NC2=O)NC2N=NC(C(F)(F)F)=C21` (configuration not stated) [US20250313563, Compound 947405], the IC50 in assay [1] is less than 0.1 µM; in assay [2], < 0.1 µM and 0.1 to 1 µM.
For `CC[C@]1(c2cccc(N3CCCC3)c2)C2=CN=NC2NC2=C1C(=O)CC(C)(C)C2` (some centres not stated) [US20250313563, Compound 810509], the IC50 in assay [1] and in assay [2] was greater than 5 µM throughout.
On to `CC1(C)CC(=O)C2=C(C1)NC1=C(CN=N1)C21CCCCCC1` [US20250313563, Compound 883978], for which the IC50 in assay [1] and in assay [2] was 0.1 to 1 µM throughout.
`CC[C@]1(c2cccc(-c3ccncc3C)c2)C2=CN=NC2NC2=C1C(=O)N[C@]1(CCCOC1)C2` (some centres not stated) [US20250313563, Compound 947911]: the IC50 in assay [1] and in assay [2] was less than 0.1 µM each time.
On to `CC(=O)N1CCC2(CC1)C1=C(N=NC1)NC1=C2C(=O)CC(C)(C)C1` [US20250313563, Compound 826649], for which the IC50 in assay [1] lay within 0.1 to 1 µM; in assay [2] it was 1 to 5 µM.
Regarding `CC[C@]1(c2cccc(C3=C4CC=C(C)N=C4N=CC3)c2)C2=CN=NC2NC2=C1C(=O)NC(C)(C)C2` (some centres not stated) [US20250313563, Compound 948151], the IC50 in assay [1] was 0.1 to 1 µM; in assay [2], greater than 5 µM.
With `CC[C@@]1(c2cccc(C3CCCC3)c2)C2=CN=NC2NC2=C1C(=O)CC(C)(C)C2` (some centres not stated) [US20250313563, Compound 949399], the figures for the IC50 in assay [1] and in assay [2] were 1 to 5 µM and greater than 5 µM, respectively.
On to `CCC1(c2ccccc2)C2=C(N=NC2)NC2=C1C(=O)C1CCC21` (configuration not stated) [US20250313563, Compound 861716], for which the IC50 in assay [1] is 1 to 5 µM; in assay [2], greater than 5 µM.
In the same order, the values of `CCC1(c2cccc(Br)c2)C2=C(N=NC2)NC2=C1C(=O)C(C)(C)C2` (configuration not stated) [US20250313563, Compound 949805] are 0.1 to 1 µM and 1 to 5 µM.
The matching figures for `CC[C@]1(c2cccc(C(F)(F)F)c2)C2=CN=NC2NC2=C1C(=O)N(c1ccc(F)cc1)CC2` (some centres not stated) [US20250313563, Compound 948224]: less than 0.1 µM and 0.1 to 1 µM.
In the same order, the values of `CC[C@@]1(c2cccc(-c3cc(C)ncc3F)c2)C2=C(CC(C)(C)NC2=O)NC2N=NC(C)=C21` (some centres not stated) [US20250313563, Compound 949338] are less than 0.1 µM and less than 0.1 µM.
For `CC1(C)CC(=O)C2=C(C1)NC1=C(CN=N1)C21CCSC1` (configuration not stated) [US20250313563, Compound 883973], the IC50 was less than 0.1 µM in assay [1] and 0.1 to 1 µM in assay [2].
In the same order, the values of `CCC1(c2cccc(N3CCCCC3)c2)C2=CN=NC2NC2=C1C(=O)NC(C)(C)C2` (configuration not stated) [US20250313563, Compound 947566] are 1 to 5 µM and 1 to 5 µM.
In the same order, the values of `CC(C)(C)CC1=C2C(N=N1)NC1=C(C(=O)CC(C)(C)C1)[C@@]21CCc2cccc(F)c21` (some centres not stated) [US20250313563, Compound 801352] are 0.1 to 1 µM and less than 0.1 µM.
Take `CCC1(c2cccc(-c3cn(C)nc3C)c2)C2=C(CC(C)(C)NC2=O)NC2N=NC(F)=C21` (configuration not stated) [US20250313563, Compound 948301]: the concentration for half-maximal inhibition (IC50) in assay [1] and in assay [2] was less than 0.1 µM each time.
As for `CC[C@]1(c2cccc(C(F)(F)F)c2)C2=CN=NC2NC2=C1C(=O)N(CCOC)CC2` (some centres not stated) [US20250313563, Compound 949599], the IC50 in assay [1] and in assay [2] was 0.1 to 1 µM throughout.
In the case of `CC1(C)CC(=O)C2=C(C1)NC1N=NC(CCC(F)(F)F)=C1C2(C)c1ccccc1` (configuration not stated) [US20250313563, Compound 828845], the IC50 in assay [1] and in assay [2] was 0.1 to 1 µM in each case.
As for `CC1(C)CC(=O)C2=C(NC3=C(CN=N3)C23CCN(S(=O)(=O)C2CC2)CC3)C1F` (configuration not stated) [US20250313563, Compound 950814], the IC50 in assay [1] and in assay [2] was less than 0.1 µM each time.
On to `CC[C@@]1(c2cccc(N3CCOc4ccccc43)c2)C2=CN=NC2NC2=C1C(=O)CC(C)(C)C2` (some centres not stated) [US20250313563, Compound 932655], for which the IC50 in assay [1] and in assay [2] was less than 0.1 µM each time.
`CCC1(c2cccc(C(F)(F)F)c2)C2=CN=NC2NC2=C1C(=O)N(c1ccc(F)cc1)CC2` (configuration not stated) [US20250313563, Compound 947748]: the IC50 in assay [1] is less than 0.1 µM; in assay [2], 0.1 to 1 µM.
As to `CC[C@@]1(c2cccc(-c3cnn4c3CC(C)(C)CC4)c2)C2=CN=NC2NC2=C1C(=O)NC(C)(C)C2` (some centres not stated) [US20250313563, Compound 950564], the values for the IC50 in assay [1] and in assay [2] were less than 0.1 µM and 0.1 to 1 µM, respectively.
In the same order, the values of `CCC1(c2cccc(C(F)(F)F)c2)C2=C(CC(C)(C)CC2=O)NC2N=NC(Br)=C21` (configuration not stated) [US20250313563, Compound 802358] are less than 0.1 µM and less than 0.1 µM.
The matching figures for `Cc1cccc(C2(C)C3=C(N=NC3)NC3=C2C(=O)CC(C)(C)C3)c1` (configuration not stated) [US20250313563, Compound 785736]: less than 0.1 µM and 0.1 to 1 µM.

Values taken from BindingDB's records for patent US20250313563 (The Broad Institute, 2025).
